Experimental data reported in patent US8778966B2, “Quinolinone derivatives as PARP and tank inhibitors” (Janssen Pharmaceutica, NV, priority 2007, dated 2014).
Where two headings read alike, the source gives them in different places.

Columns and labels:
Assay type in all cases: cell-based, human
PC-3 cells = assay: Antiproliferative activity, Alamar Blue assay, PC-3 cells; details: for IC50: Homo sapiens, PC-3, PC3 cells, read-out: PC3 antiproliferative activity pIC50 (converted)
Procedure, shortened: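 PC-3 cells seeded at 4.5×10^3 cells/ml, left to adhere 24 hr, then exposed to compound for 4 days. Resazurin (Alamar Blue) added for a further 24 hrs at 37° C; fluorescence read at 540/590 nm. Viability as % of untreated control, mean of 3 wells; IC50 by probit analysis, reported as pIC50.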

HCT116 cells [1] = assay: Antiproliferative activity, Alamar Blue assay, HCT116 cells; design: key to HCT116 antiproliferative activity pIC50: pIC50 = -log IC50 (IC50: conc. reducing growth to 50% of control); details: for IC50: Homo sapiens, HCT-116, HCT116 cells, read-out: HCT116 antiproliferative activity pIC50 (converted)
Procedure, shortened: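 HCT116 cells seeded, adhered 24 h, then exposed to compound for 4 days; Alamar Blue (resazurin) added for 4 h at 37 °C, fluorescence read at 540/590 nm. Viability as % of untreated control, triplicate wells; IC50 by probit analysis, reported as pIC50.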

HCT116 cells [2] = assay: Mitotic arrest assay on HCT116 cells (phospho-histone H3 Ser10); details: Homo sapiens, HCT-116, HCT116 cells; lowest active dose; read-out: Mitotic arrest HCT116 LAD (converted)
Procedure, shortened: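 Seeded overnight, then compound-treated 6 h at 37 °C (≤0.1% DMSO); fixed, stained with Alexa Fluor 488 anti-phospho-H3 (Ser10) plus Hoechst 33342, imaged on InCell Analyzer 1000. Blank-subtracted signal divided by SD (sigma), triplicate; value is lowest dose giving sigma >5 (LAD).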

PC3 antiproliferative activity pIC50 (PC-3 cells; PC3 cells)	HCT116 antiproliferative activity pIC50 (HCT116 cells [1]; HCT116 cells)	IC50 (PC-3 cells; Alamar Blue) [nM]	IC50 (HCT116 cells [1]; Alamar Blue) [nM]	IC50 (PC-3 cells) [nM]	IC50 (HCT116 cells [1]) [nM]	SMILES	minimal effective concentration (HCT116 cells [2]) [µM]
6.8	7.0					CCc1cc2ccc(C(C)(C#N)Cc3nc(C#N)cc(OC)n3)cc2[nH]c1=O (single isomer, unassigned) [Compound 204]	
		2000	1580			CCc1cc2c(OC)cc(C(C)(C#N)Cc3nc(OC)cc(OC)n3)cc2[nH]c1=O (single isomer, unassigned) [Compound 230]	1
		398	398			CCc1cc2ccc([C@@](C)(C#N)CCOc3ccc(C#N)cc3)cc2[nH]c1=O (single isomer, unassigned) [Compound 273]	0.1
		10000	10000			CCc1cc2ccc([C@](C)(C#N)CCOc3ccc(C#N)cc3)cc2[nH]c1=O (single isomer, unassigned) [Compound 275]	10
		501	200			CCc1cc2ccc([C@](C)(C#N)Cc3cccc(/C=C/S(C)(=O)=O)c3)cc2[nH]c1=O (single isomer, unassigned) [Compound 291]	0.1
		10000	10000			CCc1cc2ccc([C@@](C)(C#N)Cc3cccc(C#CCO)c3)cc2[nH]c1=O (single isomer, unassigned) [Compound 295]	10
		100	126			CCc1cc2ccc([C@](C)(C#N)Cc3cccc(C#CCO)c3)cc2[nH]c1=O (single isomer, unassigned) [Compound 296]	0.1
		10000	10000			CCc1cc2ccc([C@@](C)(C#N)Cc3cc(OC)nc(C)n3)cc2[nH]c1=O (single isomer, unassigned) [Compound 361]	10
		631	1000			CCc1cc2ccc([C@](C)(C#N)Cc3cc(OC)nc(C)n3)cc2[nH]c1=O (single isomer, unassigned) [Compound 362]	0.3
		10000	3980			Cc1cc2ccc([C@@](C)(C#N)C3CCc4ccccc43)cc2[nH]c1=O (single isomer, unassigned) [Compound 385]	10
		200	200			Cc1cc2ccc([C@](C)(C#N)C3CCc4ccccc43)cc2[nH]c1=O (single isomer, unassigned) [Compound 386]	0.1
				6310	3160	CCc1cc2ccc(C(C)(C#N)Cc3cccc(OCCCN4CCNCC4)c3)cc2[nH]c1=O (centres unmarked) [Compound 25]	1
				> 10000	2510	CCc1cc2ccc(C(C#N)(Cc3ccccc3)c3ccc(C#N)cc3)cc2[nH]c1=O (centres unmarked) [Compound 26]	> 10
				6310	3980	CCc1cc2ccc(C(C#N)(Cc3ccccc3)c3ccccc3)cc2[nH]c1=O (centres unmarked) [Compound 27]	3.16
				5010	1260	CCc1cc2ccc(C(C#N)(Cc3ccccc3)C3CC3)cc2[nH]c1=O (centres unmarked) [Compound 29]	1
				6310	1260	CCc1cc2ccc(C(C#N)(Cc3ccccc3)C(C)C)cc2[nH]c1=O (centres unmarked) [Compound 30]	3.16
				3160	3160	CCCC(C#N)(Cc1ccccc1)c1ccc2cc(CC)c(=O)[nH]c2c1 (centres unmarked) [Compound 31]	1
				200	126	CCc1cc2ccc(C(C)(C#N)Cc3cc(OC)ccc3F)cc2[nH]c1=O (centres unmarked) [Compound 171]	
		5010	5010			CCc1cc2ccc(C(C)(C#N)Cc3cccc(-c4ccc[nH]4)c3)cc2[nH]c1=O (centres unmarked) [Compound 176]	1
		10000	3980			CCc1cc2ccc(C(C)(C#N)Cc3cccc(CCS(C)(=O)=O)c3)cc2[nH]c1=O (centres unmarked) [Compound 178]	3
		7940	2000			Cc1cc2ccc(C(C)(C#N)Cc3cccc(C=Cc4ccccc4)c3)cc2[nH]c1=O (centres unmarked) [Compound 179]	1
				251	200	CCc1cc2ccc(C(C)(C#N)Cc3cccc(/C=N/OC)c3)cc2[nH]c1=O (centres unmarked) [Compound 185]	
		5010	3980			CCc1cc2ccc(C(C)(C#N)Cc3cccc(C(=N)NO)c3)cc2[nH]c1=O (centres unmarked) [Compound 186]	3
		1580	631			Cc1cc2ccc(C(C)(C#N)Cc3cccc(Oc4ccc(F)cc4)c3)cc2[nH]c1=O (centres unmarked) [Compound 192]	0.3

PC3 antiproliferative activity pIC50 (PC-3 cells; PC3 cells)	HCT116 antiproliferative activity pIC50 (HCT116 cells [1]; HCT116 cells)	IC50 (PC-3 cells; Alamar Blue) [nM]	IC50 (HCT116 cells [1]; Alamar Blue) [nM]	IC50 (PC-3 cells) [nM]	IC50 (HCT116 cells [1]) [nM]	SMILES	minimal effective concentration (HCT116 cells [2]) [µM]
				631	501	CCc1cc2ccc(C(C)(C#N)Cc3cccc(OCCCC#N)c3)cc2[nH]c1=O (centres unmarked) [Compound 194]	
		251	251			CCc1cc2ccc(C(C)(C#N)Cc3cccc(OCCC#N)c3)cc2[nH]c1=O (centres unmarked) [Compound 195]	0.1
		1000	631			C#CCOc1cccc(CC(C)(C#N)c2ccc3cc(CC)c(=O)[nH]c3c2)c1 (centres unmarked) [Compound 196]	0.3
		6310	2000			CCc1cc2ccc(C(C)(C#N)COCc3ccccc3)cc2[nH]c1=O (centres unmarked) [Compound 197]	
				5010	2510	CCc1cc2ccc(C(C)(C#N)Cc3cccc(OCCS(C)(=O)=O)c3)cc2[nH]c1=O (centres unmarked) [Compound 201]	
		251	200			CCc1cc2ccc(C(C)(C#N)Cc3nc(Cl)cc(OC)n3)cc2[nH]c1=O (centres unmarked) [Compound 202]	0.1
		1260	631			CCc1cc2ccc(C(C)(C#N)Cc3nc(N(C)C)cc(N(C)C)n3)cc2[nH]c1=O (centres unmarked) [Compound 205]	0.3
		5010	2000			CCc1cc2ccc(C(C)(C#N)Cc3cccc(N4CCC(N(C)C)C4)n3)cc2[nH]c1=O (centres unmarked) [Compound 209]	1
		6310	5010			CCc1cc2ccc(C(C)(C#N)Cc3cccc(C#Cc4cncn4C)n3)cc2[nH]c1=O (centres unmarked) [Compound 217]	3
		7940	2000			CCc1cc2ccc(C(C)(C#N)Cc3cccc(N(C)CCc4ccccc4)n3)cc2[nH]c1=O.Cl (centres unmarked) [Compound 220]	3
				3160	1580	CCc1cc2ccc(C(C)(C#N)Cc3cccc(C#N)[n+]3[O-])cc2[nH]c1=O (centres unmarked) [Compound 228]	
		5010	2510			CCc1cc2c(OC)cc(C(C)(C#N)Cc3nc(OC)cc(OC)n3)cc2[nH]c1=O (centres unmarked) [Compound 229]	3
		2000	1000			CCc1cc2ccc(C(C)(C#N)CN3CCN(c4ccccn4)CC3)cc2[nH]c1=O (centres unmarked) [Compound 233]	1
		1580	1580			Cc1nc(-c2ccccc2)sc1CC(C)(C#N)c1ccc2cc(C)c(=O)[nH]c2c1 (centres unmarked) [Compound 235]	0.3
		6310	2510			CCc1cc2ccc(C(C)(C#N)Cc3cccc4c3CCN4)cc2[nH]c1=O (centres unmarked) [Compound 237]	1
		251	158			CCc1cc2ccc(C(C)(C#N)Cc3cccc(C(=O)OC(C)C)c3)cc2[nH]c1=O (centres unmarked) [Compound 255]	0.1
		1000	398			Cc1cc2ccc(C(C)(C#N)Cc3cccc(I)c3)cc2[nH]c1=O (centres unmarked) [Compound 256]	0.1
		1580	631			CCc1cc2ccc(C(C)(C#N)Cc3cccc(NC)c3)cc2[nH]c1=O (centres unmarked) [Compound 257]	0.3
		1000	631			CCc1cc2ccc(C(C)(C#N)Cc3cccc(/C=N/O)c3)cc2[nH]c1=O (centres unmarked) [Compound 299]	
				1000	631	CCc1cc2ccc(C(C)(C#N)Cc3cc(C#N)nc(OC)c3)cc2[nH]c1=O (centres unmarked) [Compound 314]	
				1260	794	CCc1cc2ccc(C(C)(C#N)Cc3cc(C#N)nc(N(C)C)c3)cc2[nH]c1=O (centres unmarked) [Compound 325]	
		3160				CCc1cc2ccc(C(C)(C#N)Cc3ccc4c(c3)OC(F)(F)O4)cc2[nH]c1=O (centres unmarked) [Compound 346]	1
				3980	3160	CCc1cc2ccc(C(C)(C#N)Cc3c4ccccc4nn3C)cc2[nH]c1=O (centres unmarked) [Compound 347]	
		1580	794			CCc1cc2ccc(C(C)(C#N)Cc3cc(OC)nc(OC)c3)cc2[nH]c1=O (centres unmarked) [Compound 350]	
